Data as given in patent US20170137880A1, “METHOD FOR TREATING DEPRESSION AND MAJOR DEPRESSIVE DISORDER” (Takeda Pharmaceutical Company Limited, priority 2014, published 2017).

Legend:
Format in all cases: in vivo, human
[1] = test system: adult MDD patients; test: Cognition, Cognitive and Physical Functioning Questionnaire (CPFQ); conditions: for Cognition (CPFQ): 7-variant model, adult MDD patients
Excerpt: According to the CDC, cognitive impairment is when a person has trouble remembering, learning new things, concentrating, or making decisions that affect their everyday life. Cognitive impairment ranges from mild to severe. With mild impairment, people may begin to notice changes in cognitive functions, but still be able to do their everyday activities. Severe levels of impairment can lead to losing the ability to understand the meaning or importance of something and the ability to talk or write, resulting in the inability to live independently. Cognitive ability can be assessed by, for example, Massachusetts General Hospital Cognitive and Physical Functioning Questionnaire (see, e.g., Fava et al., J. Clin. Psychiatry, 67:11 (2006)) and/or the Digit Symbol Substitution Test (DSST) (see Mahableshwarker et al., Neuropsychopharmacology, in press 2015).
In FIG. 13, the term “SNP7=1” corresponds to patients in the subgroup identified by the 7-variant model; the term “SNP7=0” corresponds to patients not in the subgroup.

[2] = test system: adult patients with MDD; test: Response rate by treatment and genetic subgroup (responders: 50% decrease in MADRS total score from baseline at week 8); conditions: for Response rate: 20 mg/day, 8 weeks; for No Response (number of subjects) / Response (number of subjects): Lu 20 mg only
Protocol: (§1) Multicenter, randomized, double-blind, parallel-group, placebo-controlled, drug-referenced, fixed-dose studies were conducted to evaluate the efficacy and safety of vortioxetine (10, 15 and 20 mg/Day) in the acute treatment of adult patients with MDD. A total of 595 individuals meeting the diagnostic criteria from the DSM-IV-TR for recurrent MDD were included in the studies. The current major depressive disorder for each individual was confirmed by the Structured Clinical Interview for DSM Disorders (SCID). […] Individuals were treated with 10, 15 or 20 mg vortioxetine, or a different drug, or a placebo daily for 8 weeks.
(§2) Subjects were seen weekly during the first 2 weeks of treatment and then every 2 weeks up to the end of the 8-week treatment period. The primary outcome measure was change from baseline in MADRS total score after 8 Weeks of treatment. The Montgomery Asberg Depression Rating Scale (MADRS) is a depression rating scale consisting of 10 items, each rated 0 (no symptom) to 6 (severe symptom). The 10 items represent the core symptoms of depressive illness. The rating is based on a clinical interview with the patient, moving from broadly phrased questions about symptoms to more detailed ones, which allow a precise rating of severity, covering the most recent 7 days. Total score is from 0 to 60, with a higher the score being the more severe.
Secondary outcome measures included the proportion of responders at week 8 (responders defined as a 50% decrease in MADRS total score from baseline); a change from baseline in MADRS total score at week 8; and a change in clinical status using CGI-I score at week 8. The Clinical Global Impression—Global Improvement (CGI-I) scale is a 7-point scale rated from 1 (very much improved) to 7 (very much worse). The investigator rated the patient's overall improvement relative to baseline, whether or not, in the opinion of the investigator, this was entirely due to the drug treatment.
Nucleic acid samples from the individuals were run on an Illumina™ HumanOmni5EXOME whole genome bead-chip array according to the manufacturer's protocol. The raw dataset of 595 samples times 4,641,218 variants was narrowed to 473 samples times 3,923,897 variants following quality control (QC).
(§3) A composite score (or genetic score) was calculated via penalized regression using a set of focused genomic regions. The cutoff point of the genetic score that maximizes treatment specific effect was then identified. Statistical significance (via a parametric bootstrap approach) of the treatment effect for the subgroup defined by the optimal cutpoint was then determined.

[3] = test system: MDD individuals; test: Treatment effect by MADRS and HAM-A scores in genetic subgroups; conditions: for Treatment-specific effect (MADRS scores): 5-variant and 7-variant models
Protocol: as §1, §2, §3
A least square means plot of MADRS scores obtained during treatment with 10 mg vortioxetine is shown in FIG. 12B using the 7-variant model. […]

Compound: Br.Cc1ccc(Sc2ccccc2N2CCNCC2)c(C)c1 [vortioxetine, 1-[2-(2,4-Dimethyl-phenylsulfanyl)-phenyl]-piperazine, hydrobromide]
- Cognition (CPFQ) ([1]; 10 mg/day): evidence for improved cognition
- Cognition (CPFQ) ([1]; 20 mg/day): evidence for improved cognition
- Cognition ([1]; individuals with COL26A1 rs4045 and a CACNA1C variant, 20 mg/day for 8 weeks): improved cognition
- Response rate ([2]; COL26A1 rs4045 and a CACNA1C variant positive): 14/17
- Response rate ([2]; Total): 40/120
- Response rate ([2]; Variant negative): 6/25
- Response rate ([2]; subgroup N/A): 28/78
- No Response (number of subjects) ([2]; <NA>): 50
- Response (number of subjects) ([2]; <NA>): 28
- No Response (number of subjects) ([2]; In the Subgroup): 3
- Response (number of subjects) ([2]; In the Subgroup): 14
- No Response (number of subjects) ([2]; Not in Subgroup): 19
- Response (number of subjects) ([2]; Not in Subgroup): 6
- Treatment-specific effect (MADRS scores) ([3]; 10 mg): evidence for a treatment-specific effect
- Treatment-specific effect (MADRS scores) ([3]; 20 mg): evidence for a treatment-specific effect
- Response to treatment as measured by MADRS and HAM-A scores ([3]; MDD individuals with rs4045 and a CACNA1C variant): significantly enhanced response
